Measured values published in patent US20230114207A1, “THE COMBINATION OF CYCLIN DEPENDENT KINASE 7 INHIBITOR AND IMMUNOTHERAPY FOR TREATMENT OF CANCER” (Dana-Farber Cancer Institute, Inc., priority 2019, published 2023).

What was measured:
[1] = tested on: TNFα, CXCL9 and CXCL10 in BALF; assay: Luminex analysis of murine BAL fluid; type: in vivo, mouse; conditions: after 7-day treatment
Method: Mouse lung bronchoalveolar lavage (BAL) was performed by intratracheal injection of 2 ml of sterile PBS followed by collection by aspiration. TNFα, CXCL9 and CXCL10 levels were measured using mouse Cytokine/Chemokine 32-plex Assay (MILLIPLEX, Millipore) on Luminex® SD system (Luminex). Concentrations (pg/ml) of each protein were derived from 5-parameter curve fitting models according to the manufacturer's instructions.

[2] = tested on: INSM1, ASCL1, NFIB and MYC in DMS79 and GLC16; assay: RT-qPCR of super enhancer (SE)-associated genes; type: cell-based, human; conditions: 24 hr
Method: Cell pellets were collected and then subjected to total RNA extraction using RNeasy Plus Mini Kit (QIAGEN, Cat #74136) according to the manufacturer's instructions, or using TRIzol:Chloroform phase-separation by centrifugation followed by RNA precipitation using isopropanol. The extracted RNA was reversely transcribed into cDNA using the High-Capacity RNA-to-cDNA™ Kit (Thermo Fisher Scientific, Cat #4387406) according to the manufacturer's instructions. The obtained cDNA samples were diluted and used for RT-qPCR. PowerUp™ SYBR™ Green Master Mix (Thermo Fisher Scientific, Cat #A25742) or TaqMan Gene Expression Master Mix (Life Technologies, Cat #4369514). Gene specific primers with sequences listed in Table 3 were used for PCR amplification and detection on the StepOnePlus™ Real-Time PCR System (Thermo Fisher Scientific). RT-qPCR data were normalized to Actb (mouse cells) or GUSB (human cells) and presented as fold changes of gene expression in the test sample compared to the control.

[3] = tested on: RPP631 and DMS79 cells; assay: Cell cycle analysis (propidium iodide flow cytometry); type: cell-based, mouse, human
Method: Cells were seeded in 6-well plates (0.5-1×10^6 cells/well) in media and treated with YKL-5-124 at indicated concentrations and time points. Cells were collected by centrifugation, washed in cold PBS and resuspended in 1 ml of 80% EtOH in PBS and stored overnight at −20° C. Cells were again collected by centrifugation and washed 3× with cold PBS. Hereafter cells were resuspended in PBS containing: 0.1% Triton X-100, 25 μg/ml Propidium Iodide (PI) and 0.2 mg/ml RNase A and incubated for 45 min at 37° C. After incubation, cells were placed at 4° C. until ready for analysis with flow cytometry. Cells were gated for PI staining and cell accumulation in G1, S and G2/M were calculated using ModFit LT software.

[4] = tested on: CDK1 and CDK2 T-loop phosphorylation; assay: Western blotting of CDK1 and CDK2 T-loop phosphorylation in SCLC lines; type: cell-based, mouse, human; conditions: representative panel of SCLC lines, 24 hours; 'as low as'
Method: Cells in culture were collected by centrifuging at 1,500 rpm and then washed with ice-cold PBS twice to completely remove residual medium. RIPA lysis buffer (Thermo Fisher Scientific, Cat #89900) supplemented with Halt™ Protease and Phosphatase Inhibitor Cocktail (Thermo Fisher Scientific, Cat #78440) was added to cell pellets to extract protein. Protein concentrations in lysates were measured by Pierce™ BCA Protein Assay Kit (Thermo Fisher Scientific, Cat #23225) and followed by the addition of SDS loading buffer (6×) and heated at 95° C. for 5 min. Equal amount of protein samples was subjected to 4-20% gradient gel SDS-PAGE and transferred to a nitrocellulose membrane (Bio-Rad, Cat #1704271). The membrane was blocked in Odyssey® Blocking Buffer (LI-COR, Cat #927-50003) at room temperature for 1 hour and incubated with appropriate antibodies at 4° C. overnight (Key Resources Table). Antibodies were diluted in TBST (TBS with 0.1% Tween) with 20% LI-COR Odyssey Blocking Buffer. On the next day, the membrane was washed with TBST (TBS with 0.1% Tween) four times and incubated with appropriate secondary antibodies (LI-COR, anti-Rabbit, Cat #925-32213; anti-Mouse, Cat #925-68072) at room temperature for 1 hour. Membranes were imaged using the LI-COR Odyssey® Imaging System.

## C=CC(=O)Nc1ccc(C(=O)Nc2n[nH]c3c2CN(C(=O)N[C@H](CN(C)C)c2ccccc2)C3(C)C)cc1 [YKL-5-124]
[1]
  TNFα, CXCL9 and CXCL10 in BALF: pronounced increase
[2]
  expression of super enhancer (SE)-associated genes including INSM1, ASCL1, NFIB and MYC: no effect
[3]; 72 hours
  cells in G1 phase: significant accumulation
  cells in S phase: corresponding loss
[3]; concentrations up to 500 nM
  percentage of cells in G2/M phase: not significantly changed
[4]
  concentrations robustly inhibiting CDK1 and CDK2 T-loop phosphorylation: ≥ 50 nM
